Assays:
[1] = target: T1, Histone-lysine N-methyltransferase NSD3 (Homo sapiens) (UniProt Q9BZ95); test: Inhibition of WHSC1L1 (unknown origin) at 10 uM relative to control
T1 sequence (whole entry): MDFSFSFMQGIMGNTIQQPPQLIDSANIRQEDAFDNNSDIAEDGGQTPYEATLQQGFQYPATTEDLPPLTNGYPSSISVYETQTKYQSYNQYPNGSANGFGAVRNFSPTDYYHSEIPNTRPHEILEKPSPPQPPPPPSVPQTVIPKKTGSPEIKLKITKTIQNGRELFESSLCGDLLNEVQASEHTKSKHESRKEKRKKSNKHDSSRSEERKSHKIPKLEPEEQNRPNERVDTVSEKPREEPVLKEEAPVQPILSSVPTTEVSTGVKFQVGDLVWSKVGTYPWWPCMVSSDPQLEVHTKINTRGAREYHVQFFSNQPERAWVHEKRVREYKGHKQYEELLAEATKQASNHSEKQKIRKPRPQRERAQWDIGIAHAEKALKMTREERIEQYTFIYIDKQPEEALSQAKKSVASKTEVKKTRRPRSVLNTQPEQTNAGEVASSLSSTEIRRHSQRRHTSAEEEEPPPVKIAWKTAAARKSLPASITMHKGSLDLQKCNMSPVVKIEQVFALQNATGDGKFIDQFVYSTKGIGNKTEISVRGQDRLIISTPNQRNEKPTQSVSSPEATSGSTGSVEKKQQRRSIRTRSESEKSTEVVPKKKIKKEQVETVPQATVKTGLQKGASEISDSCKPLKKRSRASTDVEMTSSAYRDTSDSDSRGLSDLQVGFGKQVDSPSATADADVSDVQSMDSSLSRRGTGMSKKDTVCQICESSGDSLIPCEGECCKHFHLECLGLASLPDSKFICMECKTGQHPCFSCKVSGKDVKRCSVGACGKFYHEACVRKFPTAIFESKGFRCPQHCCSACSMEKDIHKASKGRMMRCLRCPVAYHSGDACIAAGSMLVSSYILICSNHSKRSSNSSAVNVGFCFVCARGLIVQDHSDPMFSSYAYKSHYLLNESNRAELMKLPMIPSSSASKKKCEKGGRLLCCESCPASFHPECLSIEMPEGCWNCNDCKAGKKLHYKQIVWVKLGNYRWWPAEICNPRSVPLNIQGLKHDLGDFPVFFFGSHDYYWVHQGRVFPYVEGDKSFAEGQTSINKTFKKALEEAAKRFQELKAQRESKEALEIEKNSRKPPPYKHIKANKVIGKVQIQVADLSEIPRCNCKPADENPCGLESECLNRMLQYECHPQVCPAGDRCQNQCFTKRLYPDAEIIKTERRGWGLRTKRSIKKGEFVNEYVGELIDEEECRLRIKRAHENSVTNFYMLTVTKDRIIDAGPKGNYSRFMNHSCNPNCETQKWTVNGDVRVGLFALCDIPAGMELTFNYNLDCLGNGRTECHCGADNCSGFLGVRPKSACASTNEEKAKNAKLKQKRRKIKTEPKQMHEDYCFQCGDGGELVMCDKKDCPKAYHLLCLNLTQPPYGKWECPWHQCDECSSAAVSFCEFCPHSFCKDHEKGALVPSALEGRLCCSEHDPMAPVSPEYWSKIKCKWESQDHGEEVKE

[2] = target: T2, Histone-lysine N-methyltransferase EZH1 (Homo sapiens) (UniProt Q92800); test: Inhibition of EZH1 (unknown origin) at 10 uM relative to control
T2 sequence (whole entry): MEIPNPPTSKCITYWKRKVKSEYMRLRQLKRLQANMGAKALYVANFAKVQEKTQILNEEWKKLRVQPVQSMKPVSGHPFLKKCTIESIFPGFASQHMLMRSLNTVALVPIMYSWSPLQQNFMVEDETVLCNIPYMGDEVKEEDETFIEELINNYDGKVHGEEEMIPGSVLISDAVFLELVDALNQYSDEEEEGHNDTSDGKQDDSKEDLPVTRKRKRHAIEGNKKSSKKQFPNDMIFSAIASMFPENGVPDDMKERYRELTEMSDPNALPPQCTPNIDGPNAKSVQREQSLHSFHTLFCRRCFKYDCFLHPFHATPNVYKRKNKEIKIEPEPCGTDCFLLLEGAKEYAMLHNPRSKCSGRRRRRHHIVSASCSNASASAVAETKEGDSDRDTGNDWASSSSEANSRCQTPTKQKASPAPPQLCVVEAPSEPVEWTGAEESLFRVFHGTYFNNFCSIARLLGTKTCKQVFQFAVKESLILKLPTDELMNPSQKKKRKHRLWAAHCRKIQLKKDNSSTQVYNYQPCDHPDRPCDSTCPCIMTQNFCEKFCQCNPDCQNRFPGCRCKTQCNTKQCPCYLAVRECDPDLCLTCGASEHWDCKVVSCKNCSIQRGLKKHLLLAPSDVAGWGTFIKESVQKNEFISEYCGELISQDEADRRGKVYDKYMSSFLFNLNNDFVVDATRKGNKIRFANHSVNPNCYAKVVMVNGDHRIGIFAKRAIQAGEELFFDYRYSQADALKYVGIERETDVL

[3] = target: T3, Histone-lysine N-methyltransferase SUV39H1 (Homo sapiens) (UniProt O43463); test: Inhibition of SUV39H1 (unknown origin) at 10 uM relative to control
T3 sequence (whole entry): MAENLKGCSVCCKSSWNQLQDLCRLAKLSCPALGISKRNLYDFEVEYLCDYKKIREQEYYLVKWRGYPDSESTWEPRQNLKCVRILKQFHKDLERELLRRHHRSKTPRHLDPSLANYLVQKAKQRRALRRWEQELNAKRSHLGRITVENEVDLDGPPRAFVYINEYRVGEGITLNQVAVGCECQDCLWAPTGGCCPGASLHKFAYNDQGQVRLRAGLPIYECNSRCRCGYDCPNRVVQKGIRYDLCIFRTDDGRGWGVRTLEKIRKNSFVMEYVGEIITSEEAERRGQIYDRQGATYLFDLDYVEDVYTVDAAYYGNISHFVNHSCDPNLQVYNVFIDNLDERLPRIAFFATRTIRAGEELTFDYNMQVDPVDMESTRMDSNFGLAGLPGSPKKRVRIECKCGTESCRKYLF

Measured: inhibition

O=C1Cc2cc(C(=O)N[C@H]3C[C@H]4CC[C@@H](C3)N4S(=O)(=O)N3CCC(NCc4ccccc4)CC3)c(Cl)cc2N1
< 30%: [1] | [2] | [3]

O=C1Cc2cc(C(=O)N[C@H]3C[C@H]4CC[C@@H](C3)N4S(=O)(=O)CC3CCN(CCCC(F)(F)F)CC3)c(Cl)cc2N1
< 30%: [1] | [2] | [3]

From ChEMBL document CHEMBL3797202, “Novel Oxindole Sulfonamides and Sulfamides: EPZ031686, the First Orally Bioavailable Small Molecule SMYD3 Inhibitor” (ACS Med Chem Lett, 2016)
